Data: US7256190B2, “Thiazole compounds useful as inhibitors of protein kinase” (Vertex Pharmaceuticals Incorporated, priority 2001, dated 2007)
pIC50, pKi: −log10 of the molar value.

Legend:
Type in all cases: biochemical
GSK3-β (AA 1-420) = GSK3-β (AA 1-420) (Homo sapiens, UniProt P49841); assay: GSK-3 inhibition assay (coupled enzyme system); settings: 10 μM ATP, 300 μM peptide, 60 nM GSK-3β, 30° C.
Protocol: Compounds were screened for their ability to inhibit GSK3-β (AA 1-420) activity using a standard coupled enzyme system (Fox et al. (1998) Protein Sci. 7, 2249). Reactions were carried out in a solution containing 100 mM HEPES (pH 7.5), 10 mM MgCl2, 25 mM NaCl, 300 μM NADH, 1 mM DTT and 1.5% DMSO. Final substrate concentrations in the assay were 10 μM ATP (Sigma Chemicals, St Louis, Mo.) and 300 μM peptide (HSSPHQS(PO3H2)EDEEE, American Peptide, Sunnyvale, Calif.). Reactions were carried out at 30° C. and 60 nM GSK-3β. Final concentrations of the components of the coupled enzyme system were 2.5 mM phosphoenolpyruvate, 300μM NADH, 30 μg/ml pyruvate kinase and 10 μg/ml lactate dehydrogenase.
An assay stock buffer solution was prepared containing all of the reagents listed above with the exception of ATP and the test compound of interest. 59 μl of the test reaction was placed in a 96 well ½-diameter plate (Corning, Corning, N.Y.) then treated with 1 μl of a 2 mM DMSO stock containing the test compound (final compound concentration 30 μM). The plate was incubated for ˜10 minutes at 30° C. then the reaction initiated by addition of 7 μl of ATP (final concentration 10 μM). Rates of reaction were obtained using a Molecular Devices Spectramax plate reader (Sunnyvale, Calif.) over a 5 minute read time at 30° C.
(§1) The compound numbers correspond to the compound numbers in Table 1.

Aurora2 = biological target: T1, Aurora2 (Homo sapiens, UniProt O14965); assay: Aurora2 inhibition assay (coupled enzyme assay); settings: 800 μM peptide LRRASLG, 70 nM Aurora2, 30° C.
T1 sequence (O14965 1-403): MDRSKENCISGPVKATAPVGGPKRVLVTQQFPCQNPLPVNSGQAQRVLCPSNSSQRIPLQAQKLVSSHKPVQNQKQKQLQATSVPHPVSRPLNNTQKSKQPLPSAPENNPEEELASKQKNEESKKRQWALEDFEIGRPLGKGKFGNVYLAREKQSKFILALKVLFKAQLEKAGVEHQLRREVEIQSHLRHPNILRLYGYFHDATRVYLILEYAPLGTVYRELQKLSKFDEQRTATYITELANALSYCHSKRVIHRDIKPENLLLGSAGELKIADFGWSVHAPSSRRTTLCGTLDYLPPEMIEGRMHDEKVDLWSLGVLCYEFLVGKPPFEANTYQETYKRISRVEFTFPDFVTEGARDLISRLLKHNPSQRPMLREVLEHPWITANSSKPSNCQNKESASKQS
Protocol: Compounds are screened in the following manner for their ability to inhibit Aurora2 using a standard coupled enzyme assay (Fox et al (1998). Protein Sci 7, 2246). To an assay stock buffer solution containing 0.1M HEPES 7.5, 10 mM MgCl2, 1 mM DTT, 25 mM NaCl, 2.5 mM prosphoenolpyruvate, […], […] pyruvate kinase, […] lactate dehydrogenase, […], and 800 μM peptide (LRRASLG, American Peptide, Sunnyvale, Calif.) is added a DMSO solution of a compound of the present invention to a final concentration of 30 μM. The resulting mixture is incubated at 30° C. for 10 minutes. The reaction was initiated by the addition of 10 μL of Aurora2 stock solution to give a final concentration of 70 nM in the assay. The rates of reaction are obtained by monitoring absorbance at 340 nm over a 5 minute read time at 30° C. using a BioRad Ultramark plate reader (Hercules, Calif.). The IC50 values are determined from the rate data as a function of inhibitor concentration.
as §1

Syk = Syk (Homo sapiens, UniProt P43405); assay: Syk inhibition assay (coupled enzyme assay); settings: 200 μM ATP, 4 μM poly Gly-Tyr peptide, 30° C.
Protocol: Reactions were carried out in 100 mM HEPES pH 7.5, 10 mM MgCl2, 25 mM NaCl, 1 mM DTT and 1.5% DMSO. Final substrate .concentrations in the assay were 200 μM ATP (Sigmachemical Co.) and 4 μM poly Gly-Tyr peptide (Sigma Chemical Co.). Assays were carried out at 30° C. and 200 nM Syk. Final concentrations of the components of the coupled enzyme system were 2.5 mM phosphoenolpyruvate, 300 μM NADH, 30 μg/ml pyruvate kinase and 10 μg/ml lactate dehydrogenase.
An assay stock buffer solution was prepared containing all of the reagents listed above, with the exception of Syk, DTT and the test compound of interest. 56 μl of the test reaction was placed in a 96 well plate followed by the addition of 1 μl of 2 mM DMSO stock containing the test compound (final compound concentration 30 μM). […] Rates of reaction were obtained using a BioRad Ultramark plate reader (Hercules, Calif.) over a 5 minute read time at 30° C.
as §1

Chain of GSK3-β (AA 1-420) (P49841 whole entry, the tested form may be a part): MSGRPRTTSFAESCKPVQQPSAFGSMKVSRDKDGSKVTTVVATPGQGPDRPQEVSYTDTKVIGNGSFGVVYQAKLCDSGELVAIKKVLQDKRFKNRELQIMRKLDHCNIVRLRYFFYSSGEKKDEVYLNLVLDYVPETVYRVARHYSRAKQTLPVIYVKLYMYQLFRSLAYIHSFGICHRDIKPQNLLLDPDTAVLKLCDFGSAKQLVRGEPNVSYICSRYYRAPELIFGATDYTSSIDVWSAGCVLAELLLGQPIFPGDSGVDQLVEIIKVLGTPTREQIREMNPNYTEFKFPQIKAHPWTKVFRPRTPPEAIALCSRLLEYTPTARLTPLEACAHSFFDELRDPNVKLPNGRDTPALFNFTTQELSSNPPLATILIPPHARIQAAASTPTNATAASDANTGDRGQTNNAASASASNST

Nc1cccc(COc2cccc(Nc3nccc(-c4nccs4)n3)c2)c1 [Compound I-14]
pKi (GSK3-β (AA 1-420)): > 7.00
pIC50 (Aurora2): 5.70 to 6.30
pIC50 (Syk): 5.70 to 6.30

O=[N+]([O-])c1ccccc1COc1cccc(Nc2nccc(-c3nccs3)n2)c1 [Compound I-35]
pKi (GSK3-β (AA 1-420)): > 7.00
pIC50 (Aurora2): < 5.70
pIC50 (Syk): < 5.70

c1cc(Nc2nccc(-c3nccs3)n2)cc(OCc2ccc3c(c2)OCO3)c1 [Compound I-17]
pKi (GSK3-β (AA 1-420)): > 7.00
pIC50 (Aurora2): > 6.30
pIC50 (Syk): > 6.30

Fc1cccc(F)c1Nc1nccc(-c2nccs2)n1 [Compound I-64]
pKi (GSK3-β (AA 1-420)): < 6.00
pIC50 (Aurora2): < 5.70
pIC50 (Syk): < 5.70

Clc1cccc(Cl)c1Nc1nccc(-c2nccs2)n1 [Compound I-61]
pKi (GSK3-β (AA 1-420)): < 6.00
pIC50 (Aurora2): < 5.70
pIC50 (Syk): < 5.70

O=[N+]([O-])c1cccc(Nc2nccc(-c3nccs3)n2)c1 [Compound I-16]
pKi (GSK3-β (AA 1-420)): < 6.00
pIC50 (Aurora2): > 6.30
pIC50 (Syk): 5.70 to 6.30

Nc1ccccc1COc1cccc(Nc2nccc(-c3nccs3)n2)c1 [Compound I-38]
pKi (GSK3-β (AA 1-420)): > 7.00
pIC50 (Aurora2): > 6.30
pIC50 (Syk): > 6.30

Fc1ccc(Nc2nccc(-c3nccs3)n2)cc1F [Compound I-49]
pKi (GSK3-β (AA 1-420)): > 7.00
pIC50 (Aurora2): 5.70 to 6.30
pIC50 (Syk): < 5.70

Cc1cc(C)cc(Nc2nccc(-c3nccs3)n2)c1 [Compound I-73]
pKi (GSK3-β (AA 1-420)): > 7.00
pIC50 (Aurora2): > 6.30
pIC50 (Syk): > 6.30

Fc1cc(Nc2nccc(-c3nccs3)n2)cc(F)c1F [Compound I-58]
pKi (GSK3-β (AA 1-420)): > 7.00
pIC50 (Aurora2): < 5.70
pIC50 (Syk): < 5.70

COC(=O)c1ccc(COc2cccc(Nc3nccc(-c4nccs4)n3)c2)cc1 [Compound I-82]
pKi (GSK3-β (AA 1-420)): > 7.00
pIC50 (Aurora2): < 5.70
pIC50 (Syk): < 5.70

c1ccc2cc(Nc3nccc(-c4nccs4)n3)ccc2c1 [Compound I-52]
pKi (GSK3-β (AA 1-420)): > 7.00
pIC50 (Aurora2): < 5.70
pIC50 (Syk): < 5.70
